Among the data in US8778941B2, “TRPM8 antagonists and their use in treatments” (AMGEN Inc., priority 2011, dated 2014) are IC50 values, retold here.

This experiment has as its target T1, human TRPM8 (Homo sapiens, UniProt Q7Z2W7).
T1 construct: expressed in transfected cells; host or cells: Chinese hamster ovary (CHO) cells, T-REx tetracycline-inducible expression system (Invitrogen), co-transfected with pcDNA3.1 jellyfish aequorin
Kind of experiment: Luminescence readout assay for measuring intracellular calcium (aequorin), hTRPM8 antagonism. The class given is cell-based. The conditions noted are these: CHO cell line expressing human TRPM8 and aequorin; activation by icilin, L-menthol or cold buffer (table does not say which). As for the experimental part:
Luminescence Readout Assay for Measuring Intracellular Calcium.
A stable Chinese hamster ovary cell line expressing human TRPM8 was generated using tetracycline inducible T-REx™ expression system from Invitrogen, Inc. (Carlsbad, Calif.). […] Twenty four hours before the assay, cells were seeded in 96-well plates and TRPM8 expression was induced with 0.5 μg/mL tetracycline. […] Potential antagonists were added 2.5 min prior to the addition of agonist, […], 100 µM L-menthol, or 1 min prior to the addition of cold buffer (<10° C.). The luminescence was measured by a CCD camera based FLASH-luminometer built by Amgen, Inc. A cooling device attached to FLASH luminometer was used for cold activation.
(A change in cytosolic calcium serves as a functional read-out for many receptors and channels.)

T1 sequence (Q7Z2W7 whole entry): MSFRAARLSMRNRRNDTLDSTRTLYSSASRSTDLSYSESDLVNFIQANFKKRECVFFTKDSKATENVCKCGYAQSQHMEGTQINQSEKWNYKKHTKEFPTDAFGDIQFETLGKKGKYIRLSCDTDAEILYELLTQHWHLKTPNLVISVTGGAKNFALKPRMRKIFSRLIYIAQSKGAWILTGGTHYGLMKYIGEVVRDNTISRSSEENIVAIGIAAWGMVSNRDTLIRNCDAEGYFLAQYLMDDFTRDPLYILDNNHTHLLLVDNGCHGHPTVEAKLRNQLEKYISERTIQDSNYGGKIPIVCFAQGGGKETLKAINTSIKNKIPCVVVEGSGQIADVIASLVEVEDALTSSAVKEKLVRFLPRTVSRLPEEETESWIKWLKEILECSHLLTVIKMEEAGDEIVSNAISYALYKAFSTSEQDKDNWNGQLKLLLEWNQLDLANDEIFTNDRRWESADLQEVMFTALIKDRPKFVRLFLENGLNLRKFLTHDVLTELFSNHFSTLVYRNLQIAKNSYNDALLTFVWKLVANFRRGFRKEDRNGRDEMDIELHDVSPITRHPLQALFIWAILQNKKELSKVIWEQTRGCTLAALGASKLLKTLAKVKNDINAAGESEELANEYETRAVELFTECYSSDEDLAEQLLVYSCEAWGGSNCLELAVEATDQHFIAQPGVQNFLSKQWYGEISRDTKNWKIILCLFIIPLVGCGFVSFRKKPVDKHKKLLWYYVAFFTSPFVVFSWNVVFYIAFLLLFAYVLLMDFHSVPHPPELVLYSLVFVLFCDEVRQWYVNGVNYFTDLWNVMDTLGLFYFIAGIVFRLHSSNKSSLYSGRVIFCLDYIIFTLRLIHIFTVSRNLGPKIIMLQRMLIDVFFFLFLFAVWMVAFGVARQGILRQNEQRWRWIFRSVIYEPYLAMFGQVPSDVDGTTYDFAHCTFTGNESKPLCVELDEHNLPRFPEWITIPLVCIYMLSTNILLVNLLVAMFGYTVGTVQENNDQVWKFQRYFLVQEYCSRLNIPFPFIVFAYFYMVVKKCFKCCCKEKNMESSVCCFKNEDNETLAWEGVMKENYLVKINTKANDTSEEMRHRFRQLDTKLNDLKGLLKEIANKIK

What is called IC50 is the concentration that gives 50% inhibition. In the case of `COc1ccc([C@H](NC(=O)Nc2cccnc2)c2ncccc2C(F)(F)F)cc1` [Example 2, (S)-1-((4-methoxy-phenyl)(3-(trifluoro-methyl)-pyridin-2-yl)-methyl)-3-(pyridin-3-yl)-urea], the IC50 amounted to 230 nM. The value for `O=C(Nc1cccnc1)N[C@@H](c1cccc(Cl)c1)c1ncccc1C(F)(F)F` [Example 3, (S)-1-((3-chlorophenyl)-(3-(trifluoro-methyl)-pyridin-2-yl)-methyl)-3-(pyridin-3-yl)-urea] was 172 nM; that for `COc1cccc([C@H](NC(=O)Nc2cccnc2)c2ncccc2C(F)(F)F)c1` [Example 4, (S)-1-((3-methoxy-phenyl)(3-(trifluoro-methyl)-pyridin-2-yl)-methyl)-3-(pyridin-3-yl)-urea] was 1230 nM; that for `COc1ccc([C@H](NC(=O)Nc2cccnc2)c2ncccc2C(F)(F)F)cc1F` [Example 5, (S)-1-((3-fluoro-4-methoxy-phenyl)(3-(trifluoro-methyl)-pyridin-2-yl)-methyl)-3-(pyridin-3-yl)-urea] was 145 nM.

For the compound `O=C(Nc1cccnc1)N[C@@H](c1cnc2ccccc2c1)c1ncccc1C(F)(F)F` [Example 6, (S)-1-(pyridin-3-yl)-3-(quinolin-3-yl(3-(trifluoro-methyl)-pyridin-2-yl)-methyl)urea], the half-maximal inhibitory concentration (IC50) came out at 259 nM. The value for `Cc1cccc([C@H](NC(=O)Nc2cccnc2)c2ncccc2C(F)(F)F)c1` [Example 7, (S)-1-((3-methylphenyl) (3-(trifluoro-methyl)-pyridin-2-yl)-methyl)-3-(pyridin-3-yl)-urea] was 723 nM; that for `O=C(Nc1cccnc1)N[C@@H](c1cccc(F)c1)c1ncccc1C(F)(F)F` [Example 8, (S)-1-((3-fluorophenyl)-(3-(trifluoro-methyl)-pyridin-2-yl)-methyl)-3-(pyridin-3-yl)-urea] was 593 nM.

Consider `O=C(Nc1cccnc1)N[C@@H](c1cccc(C(F)(F)F)c1)c1ncccc1C(F)(F)F` [Example 9, (S)-1-((3-(trifluoro-methyl)-phenyl)(3-(trifluoro-methyl)-pyridin-2-yl)-methyl)-3-(pyridin-3-yl)-urea], for which the IC50 is 175 nM. The value for `O=C(Nc1cccnc1)N[C@@H](c1cnc2cccc(Cl)c2c1)c1ncccc1C(F)(F)F` [Example 10, (S)-1-((5-chloroquinolin-3-yl)(3-(trifluoro-methyl)-pyridin-2-yl)-methyl)-3-(pyridin-3-yl)-urea] was 172 nM.

`O=C(Nc1cccnc1)N[C@@H](c1ccc2ccccc2c1)c1ncccc1C(F)(F)F` [Example 11]: the IC50 amounted to 101 nM.

As to `O=C(Nc1cccnc1)N[C@@H](c1cnc2c(Cl)cccc2c1)c1ncccc1C(F)(F)F` [Example 12, (S)-1-((8-chloroquinolin-3-yl)(3-(trifluoro-methyl)-pyridin-2-yl)-methyl)-3-(pyridin-3-yl)-urea], the IC50 is 88 nM. Turning to `O=C(Nc1cccnc1)N[C@@H](c1ccc(Cl)c(Cl)c1)c1ncccc1C(F)(F)F` [Example 13, (S)-1-((3,4-dichlorophenyl) (3-(trifluoro-methyl)-pyridin-2-yl)-methyl)-3-(pyridin-3-yl)-urea], the IC50 was 51 nM. With `O=C(Nc1cccnc1)N[C@@H](c1cnc2c(F)cccc2c1)c1ncccc1C(F)(F)F` [Example 14, (S)-1-((8-fluoro-quinolin-3-yl)-(3-(trifluoro-methyl)-pyridin-2-yl)-methyl)-3-(pyridin-3-yl)-urea], the IC50 is 533 nM. The value for `O=C(Nc1cccnc1)N[C@@H](c1ccc(OC(F)(F)F)cc1)c1ncccc1F` [Example 15, (S)-1-((3-fluoropyridin-2-yl)(4-(trifluoro-methoxy)-phenyl)-methyl)-3-(pyridin-3-yl)-urea] was 15 nM. As for `COc1cccc2cc([C@H](NC(=O)Nc3cccnc3)c3ncccc3C(F)(F)F)cnc12` [Example 16, (S)-1-((8-methoxy-quinolin-3-yl)-(3-(trifluoro-methyl)-pyridin-2-yl)-methyl)-3-(pyridin-3-yl)-urea], the IC50 stood at 2260 nM.
